The text below walks through data of patent US20050197350A1, “Novel quinoline, tetrahydroquinazoline, and pyrimidine derivatives and methods of treatment related to the use thereof” (TAISHO PHARMACEUTICAL CO., LTD., priority 2003, published 2005).

The first test concerns MCH receptors. In words: MCH receptor activity class (method not given). The conditions noted are these: MCH receptor activity class 1-3 (percent of control at 10^-7 M or IC50).
On to `CC(C)c1ccccc1NC(=O)NC[C@H]1CC[C@@H](Nc2nc3c(c(N(C)C)n2)CCCC3)CC1` [compound 2472], for which the class is given as 3 (Class 3 The value of percent of control at 10^−7 M was more than 60% or the value of IC50 was more than 200 nM.).

Still in this test, the particulars now being: MCH receptor; class by percent of control at 10^-7 M or IC50.
For the compound `COC(=O)c1cc(NC(=O)N[C@H]2CC[C@@H](Nc3nc4c(c(N(C)C)n3)CCCC4)CC2)cc(C(=O)OC)c1` [compound 1911], the class is 3 (Class 3 The value of percent of control at 10^−7 M was more than 60% or the value of IC50 was more than 200 nM.).

Consider `CCc1ccc(NC(=S)N[C@H]2CC[C@@H](Nc3nc4c(c(N(C)C)n3)CCCC4)CC2)cc1` [compound 1966], for which the class is 3 (Class 3 The value of percent of control at 10^−7 M was more than 60% or the value of IC50 was more than 200 nM.).

For `Cc1cccc(C(=O)NC[C@H]2CC[C@@H](Nc3cc(N(C)C)c4ccccc4n3)CC2)c1` [compound 177, N-[(cis-4-{[4-(dimethylamino)quinolin-2-yl]amino}cyclohexyl)methyl]-3-methylbenzamide], the class is reported as 3 (Class 3 The value of percent of control at 10^−7 M was more than 60% or the value of IC50 was more than 200 nM.).

`CN(C)c1nc(N[C@H]2CC[C@@H](NC(=S)Nc3ccc(Br)c(Cl)c3)CC2)nc2c1CCCC2` [compound 2046]: the class is given as 3 (Class 3 The value of percent of control at 10^−7 M was more than 60% or the value of IC50 was more than 200 nM.).

Turning to `CN(C)c1cc(N[C@H]2CC[C@@H](NC(=O)c3cc(C(F)(F)F)cc(C(F)(F)F)c3)CC2)nc2ccccc12` [compound 78, N-(cis-4-{[4-(dimethylamino)quinolin-2-yl]amino}cyclohexyl)-3,5-bis(trifluoromethyl)benzamide], the class is given as 2 (Class 2: The value of percent of control at 10^−7 M was from 40% to 60% or the value of IC′50 was from 50 nM to 200 nM.).

The test is the same for the next values; noted with them: activity class 1-3: percent of control at 10^-7 M or IC50.
On to `Cc1c(NC(=O)N[C@H]2CC[C@@H](Nc3nc4c(c(N(C)C)n3)CCCC4)CC2)cccc1[N+](=O)[O-]` [compound 1681], for which the class is on record as 3 (Class 3 The value of percent of control at 10^−7 M was more than 60% or the value of IC50 was more than 200 nM.).

With `CN(C)c1cc(N[C@H]2CC[C@@H](NC(=O)OCC(C)(C)C)CC2)nc2ccccc12` [compound 1540], the class is 3 (Class 3 The value of percent of control at 10^−7 M was more than 60% or the value of IC50 was more than 200 nM.).

Consider `CN(C)c1nc(N[C@H]2CC[C@@H](CNC(=O)Oc3ccc(Br)cc3)CC2)nc2c1CCCC2` [compound 1603], for which the class is 3 (Class 3 The value of percent of control at 10^−7 M was more than 60% or the value of IC50 was more than 200 nM.).

Staying with this test, now noted: class 1-3 by percent of control at 10^-7 M or IC50.
Regarding `CN(C)c1nc(N[C@H]2CC[C@@H](NC(=O)c3cc(C(C)(C)C)nn3Cc3ccccc3)CC2)nc2c1CCCC2` [compound 521], the class was 2 (Class 2: The value of percent of control at 10^−7 M was from 40% to 60% or the value of IC′50 was from 50 nM to 200 nM.).

As for `Cc1ccc(C(=O)NC[C@H]2CC[C@@H](Nc3nccc(N(C)C)n3)CC2)cc1F` [compound 419], the class is on record as 3 (Class 3 The value of percent of control at 10^−7 M was more than 60% or the value of IC50 was more than 200 nM.).

Still in this test, the particulars now being: class by percent of control at 10^-7 M or IC50.
In the case of `CN(C)c1ccc(CNC[C@H]2CC[C@@H](Nc3nc4c(c(N(C)C)n3)CCCC4)CC2)cc1` [compound 1393], the class was 3 (Class 3 The value of percent of control at 10^−7 M was more than 60% or the value of IC50 was more than 200 nM.).

Turning to `CCc1ccccc1CNC[C@H]1CC[C@@H](Nc2nccc(N(C)C)n2)CC1` [compound 1322], the class was 3 (Class 3 The value of percent of control at 10^−7 M was more than 60% or the value of IC50 was more than 200 nM.).

Consider `Cc1ccc(C(=O)NC[C@H]2CC[C@@H](Nc3nc4c(c(N(C)C)n3)CCCC4)CC2)cc1F` [compound 636], for which the class was 3 (Class 3 The value of percent of control at 10^−7 M was more than 60% or the value of IC50 was more than 200 nM.).

Take `CN(C)c1nc(N[C@H]2CC[C@@H](NC(=O)Nc3ccccc3[N+](=O)[O-])CC2)nc2c1CCCC2` [compound 1717]: the class was 3 (Class 3 The value of percent of control at 10^−7 M was more than 60% or the value of IC50 was more than 200 nM.).

Take `CN(C)c1cc(N[C@H]2CC[C@@H](CNC(=O)Cc3cccc4ccccc34)CC2)nc2ccccc12` [compound 216]: the class is 3 (Class 3 The value of percent of control at 10^−7 M was more than 60% or the value of IC50 was more than 200 nM.).

Consider `COc1cc(CC(=O)N[C@H]2CC[C@@H](Nc3cc(N(C)C)c4ccccc4n3)CC2)cc(OC)c1` [compound 702], for which the class was 3 (Class 3 The value of percent of control at 10^−7 M was more than 60% or the value of IC50 was more than 200 nM.).

In the case of `CN(C)c1cc(N[C@H]2CC[C@@H](NC(=O)C(c3ccc(Cl)cc3)c3ccc(Cl)cc3)CC2)nc2ccccc12` [compound 686], the class is 2 (Class 2: The value of percent of control at 10^−7 M was from 40% to 60% or the value of IC′50 was from 50 nM to 200 nM.).

Turning to `CCOc1ccccc1NC(=S)N[C@H]1CC[C@@H](Nc2nc3c(c(N(C)C)n2)CCCC3)CC1` [compound 1782], the class is 2 (Class 2: The value of percent of control at 10^−7 M was from 40% to 60% or the value of IC′50 was from 50 nM to 200 nM.).

For the compound `COc1ccc(CNC[C@H]2CC[C@@H](Nc3nccc(N(C)C)n3)CC2)c(OC)c1OC` [compound 1253], the class is recorded as 1 (Class 1: The value of percent of control at 10^−7 M was less than 40% or the value of IC50 was less than 50 nM.).

Take `COc1ccc(NC(=O)N[C@H]2CC[C@@H](Nc3nc4c(c(N(C)C)n3)CCCC4)CC2)cc1OC` [compound 1720, N-(3,4-dimethoxyphenyl)-N′-(cis-4-{[4-(dimethylamino)-5,6,7,8-tetrahydroquinazolin-2-yl]amino}cyclohexyl)urea]: the class was 2 (Class 2: The value of percent of control at 10^−7 M was from 40% to 60% or the value of IC′50 was from 50 nM to 200 nM.).

For `C=CCOc1ccccc1CNC[C@H]1CC[C@@H](Nc2cc(N(C)C)c3ccccc3n2)CC1` [compound 1177], the class is reported as 2 (Class 2: The value of percent of control at 10^−7 M was from 40% to 60% or the value of IC′50 was from 50 nM to 200 nM.).

Regarding `CN(C)c1ccnc(N[C@H]2CC[C@@H](NC(=O)c3ccc([N+](=O)[O-])o3)CC2)n1` [compound 329], the class was 3 (Class 3 The value of percent of control at 10^−7 M was more than 60% or the value of IC50 was more than 200 nM.).

For the compound `CCC(C(=O)N[C@H]1CC[C@@H](Nc2nccc(N(C)C)n2)CC1)c1ccccc1` (relative stereo) [compound 284], the class is given as 3 (Class 3 The value of percent of control at 10^−7 M was more than 60% or the value of IC50 was more than 200 nM.).

`CN(C)c1cc(N[C@H]2CC[C@@H](NC(=O)c3ccccc3Sc3ccccc3C#N)CC2)nc2ccccc12` [compound 735]: the class is listed as 3 (Class 3 The value of percent of control at 10^−7 M was more than 60% or the value of IC50 was more than 200 nM.).

As for `CN(C)c1nc(N[C@H]2CC[C@@H](NC(=O)NC(C)(C)C)CC2)nc2c1CCCC2` [compound 1810], the class is given as 3 (Class 3 The value of percent of control at 10^−7 M was more than 60% or the value of IC50 was more than 200 nM.).

Turning to `COc1cc(C(=O)N[C@H]2CC[C@@H](Nc3nccc(N(C)C)n3)CC2)cc(OC)c1OC` [compound 333], the class was 3 (Class 3 The value of percent of control at 10^−7 M was more than 60% or the value of IC50 was more than 200 nM.).

With `Cc1cc(C(=O)NC[C@H]2CC[C@@H](Nc3cc(N(C)C)c4ccccc4n3)CC2)cc(C)c1OCc1ccccc1` [compound 809], the class was 3 (Class 3 The value of percent of control at 10^−7 M was more than 60% or the value of IC50 was more than 200 nM.).

`Cc1onc(-c2ccccc2Cl)c1C(=O)N[C@H]1CC[C@@H](Nc2nccc(N(C)C)n2)CC1` [compound 316]: the class is recorded as 3 (Class 3 The value of percent of control at 10^−7 M was more than 60% or the value of IC50 was more than 200 nM.).

Turning to `Cc1cccc(C(=O)NC[C@H]2CC[C@@H](Nc3nc4c(c(N(C)C)n3)CCCC4)CC2)c1C` [compound 672], the class is listed as 3 (Class 3 The value of percent of control at 10^−7 M was more than 60% or the value of IC50 was more than 200 nM.).

`CN(C)c1nc(N[C@H]2CC[C@@H](NC(=O)c3ccc(Br)s3)CC2)nc2c1CCCC2` [compound 949]: the class is listed as 2 (Class 2: The value of percent of control at 10^−7 M was from 40% to 60% or the value of IC′50 was from 50 nM to 200 nM.).

Staying with this test, now noted: class by percent of control at 10^−7 M or IC50.
Take `Cc1cnc(N[C@H]2CC[C@@H](NC(=O)c3ccc(Cl)cc3)CC2)nc1N(C)C` [compound 2907, 4-chloro-N-(cis-4-{[4-(dimethylamino)-5-methylpyrimidin-2-yl]amino}cyclohexyl)benzamide]: the class is given as 1 (Class 1: The value of percent of control at 10^−7 M was less than 40% or the value of IC50 was less than 50 nM.).

As for `COc1ccc(N(C)C(=O)N[C@H]2CC[C@@H](Nc3ncc(C)c(N(C)C)n3)CC2)cc1` [compound 3029, N′-(cis-4-{[4-(dimethylamino)-5-methylpyrimidin-2-yl]amino}cyclohexyl)-N-(4-methoxyphenyl)-N-methylurea], the class is listed as 1 (Class 1: The value of percent of control at 10^−7 M was less than 40% or the value of IC50 was less than 50 nM.).

`Cc1nc(N[C@H]2CC[C@@H](NC(=O)c3cc(O)nc(O)c3)CC2)nc(N(C)C)c1C` [compound 2825]: the class is recorded as 3 (Class 3 The value of percent of control at 10^−7 M was more than 60% or the value of IC50 was more than 200 nM.).

With `Cc1cc(N(C)C)nc(N[C@H]2CC[C@@H](NC(=O)c3ccc(F)c(Cl)c3)CC2)n1` [compound 2963], the class is 1 (Class 1: The value of percent of control at 10^−7 M was less than 40% or the value of IC50 was less than 50 nM.).

For `Cc1nc(N[C@H]2CC[C@@H](NC(=O)c3cccc(Br)c3)CC2)nc(N(C)C)c1C` [compound 2839, 3-bromo-N-(cis-4-{[4-(dimethylamino)-5,6-dimethylpyrimidin-2-yl]amino}cyclohexyl)benzamide], the class is 1 (Class 1: The value of percent of control at 10^−7 M was less than 40% or the value of IC50 was less than 50 nM.).
